Series [1] can be described thus: Acute toxicity, Karber and Behrens method, female IFFA-CREDO mice. As to conditions: mouse, in vivo. The procedure: Acute toxicity was determined by the intravenous and oral routes, using the Karber and Behrens method, in mice female IFFA-CREDO weighing 20 g (10 mice per dosage level).
In series [2] the test system is Staphylococcus pyogenes aureus Oxford. Briefly: Antibacterial activity, dilution method: Staphylococcus pyogenes aureus Oxford. The class given is cell-based. As to conditions: Difco bacto-peptone medium. Here is the method:
(§1) The tests were carried out according to the dilution method.
(§2) To determine the activity against Staphylococcus, Proteus vulgaris, Klebsiella pneumoniae and Escherichia coli, use was made of Difco bacto-peptone medium, and nutrient broth T was used to investigate the activity against Pneumococcus.

The test system of series [3] is Streptococcus pyrogenes 5625. Nature of the series: Antibacterial activity, dilution method: Streptococcus pyrogenes 5625. The format is cell-based. The procedure: as §1, §2
In series [4] the test system is Diplococcus pneumoniae 692. Nature of the series: Antibacterial activity, dilution method: Diplococcus pneumoniae 692. The class given is cell-based. To be noted: for MIC: Streptococcus pneumoniae, 692, nutrient broth T. The procedure:
as §1, §2

The test system of another series is Proteus vulgaris. Nature of the series: Antibacterial activity, dilution method: Proteus vulgaris. To be noted: Difco bacto-peptone medium. The format is cell-based. The procedure: as §1, §2
The test system of the next series is Klebsiella pneumoniae. Nature of the series: Antibacterial activity, dilution method: Klebsiella pneumoniae. The format is cell-based. To be noted: Difco bacto-peptone medium. The procedure: as §1, §2
In a further series the test system is Escherichia coli. Briefly: Antibacterial activity, dilution method: Escherichia coli. To be noted: Difco bacto-peptone medium. The format is cell-based. Here is the method: as §1, §2
A further series deals with gram-positive germs. Nature of the series: Antibacterial activity, dilution method: gram-positive germs (summary). The class given is cell-based. As to conditions: in words. The procedure:
as §1, §2

A short description of series [5]: Solubility in physiological saline solution. The format is physicochemical.
Series [6] in a line: Sensitivity to light and air. The class given is physicochemical.

The source of these data is patent publication US4054669A, “Phenolic menthene derivatives, therapeutic composition containing same and their use as therapeutic compositions” (Les Derives Resiniques et Terpeniques, priority 1975, dated 1977).

In general, LD50 refers to the dose at which mortality reaches 50%. In general, MIC refers to the smallest concentration in the dilution series that meets the test's criterion for growth inhibition.

Converted amounts (≈) assume the structure as drawn.

With `Cc1c(C2=CCC(C)CC2C(C)C)cc(C(C)C)c(O)c1S(=O)(=O)O` (stereo not shown) [LJ 2128, m.menthene-thymol-2-sulfonate], the LD50 in series [1] (iv) is 125 mg/kg; in [1] (po) it was 1920 mg/kg. Further, the MIC in series [2] is 140 µg/mL (≈ 382 µM); in [3] it was 16 µg/mL (≈ 43.7 µM); in series [4], 12 µg/mL (≈ 32.7 µM); in the series on Proteus vulgaris, above 1000 µg/mL; against Klebsiella pneumoniae, above 1000 µg/mL; with Escherichia coli, above 1000 µg/mL. In the series with gram-positive germs, the “activity against gram-positive germs” value is “active against gram-positive germs”. Further, the “solubility in physiological saline solution” value in [5] is “soluble in physiological saline solution, giving a clear solution”.
Turning to `CC1CC=C(c2ccc(O)cc2)C(C(C)C)C1` (stereo not shown) [m.menthene-phenol, 4-(3'-m.menthen-4'-yl)-phenol], in series [6], the “sensitivity to light and air” value was “highly sensitive to light and air”.
For `CC1CC=C(c2ccc(O)c(S(=O)(=O)O)c2)C(C(C)C)C1` (stereo not shown) [LJ 2148, sodium m.menthene-phenol-2-sulfonate], the figures for the LD50 in series [1] (iv) and in series [1] (po) were 305 mg/kg and 2900 mg/kg, respectively. Further, the MIC is 28 µg/mL in [2]; 10 µg/mL in series [3]; 3 µg/mL in [4]; above 1000 µg/mL against Proteus vulgaris; above 1000 µg/mL against Klebsiella pneumoniae; above 1000 µg/mL in the series on Escherichia coli. For the same compound, in series [4] (in words), the “activity against Diplococcus pneumoniae” value is “particularly active against Diplococcus pneumoniae”. In the series on gram-positive germs, the “activity against gram-positive germs” value is given as “active against gram-positive germs”. Besides, the “solubility in physiological saline solution” value in series [5] is recorded as “soluble in physiological saline solution”.
